Measured values taken from PubChem BioAssay (NCI).
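Briefly, cells in 96-well plates were exposed to five compound concentrations for 48 h, and endpoints were estimated by linear interpolation. Definition used: TGI = concentration required for complete inhibition of growth.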

Assays:
Assay in all cases: growth of human tumour cells (NCI), 48 h
[1] = system: SW-620 colon
[2] = system: HT29 colon
[3] = system: SNB-19 CNS
[4] = system: SF-539 CNS
[5] = system: NCI-H522 lung
[6] = system: SK-OV-3 ovarian
[7] = system: A549 NSCLC
[8] = system: MALME-3M melanoma
[9] = system: MDA-MB-231 breast
[10] = system: UO-31 renal
[11] = system: MDA-N
[12] = system: HL-60(TB) leukemia
[13] = system: SN12C renal
[14] = system: OVCAR-3 ovarian
[15] = system: A498 renal
[16] = system: CCRF-CEM leukemia
[17] = system: UACC-62 melanoma
[18] = system: SF-268 CNS
[19] = system: OVCAR-5 ovarian
[20] = system: IGROV1 ovarian
[21] = system: SK-MEL-2 melanoma
[22] = system: PC-3 prostate
[23] = system: SK-MEL-28 melanoma
[24] = system: SNB-75 CNS
[25] = system: HCT-116 colon
[26] = system: TK-10 renal
[27] = system: LOX IMVI melanoma
[28] = system: RXF 393 renal
[29] = system: SF-295 CNS
[30] = system: SR leukemia
[31] = system: DU-145 prostate
[32] = system: MDA-MB-435
[33] = system: RPMI-8226 leukemia
[34] = system: SK-MEL-5 melanoma
[35] = system: OVCAR-8 ovarian
[36] = system: UACC-257 melanoma
[37] = system: NCI-H460 lung
[38] = system: MCF7 breast
[39] = system: ACHN renal
[40] = system: NCI/ADR-RES ovarian
[41] = system: T-47D breast
[42] = system: HCT-15 colon
[43] = system: MOLT-4 leukemia
[44] = system: OVCAR-4 ovarian
[45] = system: K-562 leukemia
[46] = system: U251 CNS
[47] = system: NCI-H23 lung
[48] = system: NCI-H226 lung
[49] = system: EKVX NSCLC
[50] = system: COLO 205 colon
[51] = system: KM12 colon
[52] = system: M14 melanoma
[53] = system: 786-0 renal
[54] = system: HS 578T breast
[55] = system: HOP-62 NSCLC
[56] = system: CAKI-1 renal
[57] = system: HOP-92 NSCLC

Work on COC1=CC(=O)c2c(cc(COP(N)(=O)N(CCBr)CCBr)n2C)C1=O (configuration not stated) yielded a TGI [1] of 1480 nM, a TGI [2] of 1050 nM and a TGI [3] of 8.28 µM. It also gave a TGI [4] of 133 nM, a TGI [5] of 188 nM and a TGI [6] of 1.15 µM. For the same compound, the TGI [7] was 1710 nM, the TGI [8] was 1860 nM and the TGI [9] was 7.1 µM. It also gave a TGI [10] of 3.66 µM, a TGI [11] of 2240 nM and a TGI [12] of 3.64 µM. It also gave a TGI [13] of 1.08 µM, a TGI [14] of 651 nM and a TGI [15] of 2.88 µM. For the same compound, the TGI [16] was 771 nM, the TGI [17] was 1.47 µM and the TGI [18] was 1800 nM. For the same compound, the TGI [19] was 1060 nM, the TGI [20] was 2800 nM and the TGI [21] was 3.57 µM. The TGI [22] was 4.62 µM, the TGI [23] was 3.1 µM and the TGI [24] was 1190 nM. For the same compound, the TGI [25] was 131 nM, the TGI [26] was 3.43 µM and the TGI [27] was 121 nM. It also gave a TGI [28] of 1490 nM, a TGI [29] of 225 nM and a TGI [30] of 1600 nM. It also gave a TGI [31] of 1410 nM, a TGI [32] of 2420 nM and a TGI [33] of 1160 nM. For the same compound, the TGI [34] was 2200 nM, the TGI [35] was 1.2 µM and the TGI [36] was 4.44 µM. For the same compound, the TGI [37] was 5.38 µM, the TGI [38] was 16.1 µM and the TGI [39] was 21.9 nM. The TGI [40] was 7.86 µM, the TGI [41] was 2980 nM and the TGI [42] was 2500 nM. The TGI [43] was over 100 µM, the TGI [44] was 10.5 µM and the TGI [45] was over 100 µM. For the same compound, the TGI [46] was 859 nM, the TGI [47] was 2.67 µM and the TGI [48] was 1.17 µM. It also gave a TGI [49] of 207 nM, a TGI [50] of 144 nM and a TGI [51] of 4.72 µM. For the same compound, the TGI [52] was 0.633 µM.
COc1cc(O)c2c(c1)OCC1(Cc3cc(OC)c(OC)cc31)C2=O (configuration not stated) was tested, and the TGI [1] was over 100000 nM, the TGI [2] was over 100000 nM and the TGI [3] was over 100 µM. For the same compound, the TGI [4] was over 100000 nM, the TGI [5] was over 100000 nM and the TGI [6] was over 100 µM. It also gave a TGI [53] of over 100000 nM, a TGI [7] of 66800 nM and a TGI [8] of over 100000 nM. For the same compound, the TGI [9] was over 100 µM, the TGI [10] was over 100 µM and the TGI [11] was over 100000 nM. The TGI [12] was over 100 µM, the TGI [13] was over 100 µM and the TGI [14] was over 100000 nM. It also gave a TGI [15] of over 100 µM, a TGI [16] of over 100000 nM and a TGI [17] of over 100 µM. The TGI [18] was over 100000 nM, the TGI [19] was over 100000 nM and the TGI [20] was over 100000 nM. It also gave a TGI [54] of over 100 µM, a TGI [21] of over 100 µM and a TGI [22] of over 100 µM. For the same compound, the TGI [23] was over 100 µM, the TGI [24] was over 100000 nM and the TGI [25] was over 100000 nM. For the same compound, the TGI [26] was over 100 µM, the TGI [27] was over 100000 nM and the TGI [28] was over 100000 nM. The TGI [55] was over 100000 nM, the TGI [29] was over 100000 nM and the TGI [30] was over 100000 nM. For the same compound, the TGI [56] was over 100000 nM, the TGI [31] was over 100000 nM and the TGI [32] was over 100000 nM. The TGI [33] was over 100000 nM, the TGI [34] was 26700 nM and the TGI [35] was over 100 µM. For the same compound, the TGI [36] was over 100 µM, the TGI [37] was over 100 µM and the TGI [57] was over 100 µM. It also gave a TGI [38] of over 100 µM, a TGI [39] of over 100000 nM and a TGI [40] of over 100 µM. It also gave a TGI [41] of 57200 nM, a TGI [42] of over 100000 nM and a TGI [43] of over 100 µM. For the same compound, the TGI [44] was over 100 µM, the TGI [45] was over 100 µM and the TGI [46] was over 100000 nM. The TGI [47] was over 100 µM, the TGI [48] was over 100 µM and the TGI [50] was over 100000 nM. It also gave a TGI [51] of over 100 µM and a TGI [52] of over 100 µM.
CC/C=C/C(CC)C/C(C)=C\[C@]1(CC)C[C@H](CC)[C@H](CC(=O)O)OO1 (some centres not stated) gave a TGI [1] of 1420 nM, a TGI [2] of 1830 nM and a TGI [3] of 3.34 µM. It also gave a TGI [4] of 2930 nM, a TGI [5] of 331 nM and a TGI [6] of 3.3 µM. The TGI [53] was 2610 nM, the TGI [7] was 281 nM and the TGI [9] was 3.31 µM. The TGI [10] was 0.0368 µM, the TGI [11] was 2710 nM and the TGI [12] was 2.27 µM. The TGI [13] was 3.05 µM, the TGI [14] was 2480 nM and the TGI [15] was 3.07 µM. It also gave a TGI [16] of 410 nM, a TGI [17] of 3.07 µM and a TGI [18] of 2900 nM. For the same compound, the TGI [19] was 2640 nM, the TGI [20] was 208 nM and the TGI [54] was 5.31 µM. The TGI [21] was 3.22 µM, the TGI [22] was 1.24 µM and the TGI [25] was 1430 nM. It also gave a TGI [27] of 129 nM, a TGI [55] of 2200 nM and a TGI [29] of 1190 nM. It also gave a TGI [30] of 287 nM, a TGI [56] of 967 nM and a TGI [31] of 1640 nM. The TGI [32] was 2800 nM, the TGI [33] was 395 nM and the TGI [34] was 2540 nM. The TGI [35] was 3.23 µM, the TGI [36] was 11.1 µM and the TGI [37] was 0.36 µM. The TGI [38] was 3.58 µM, the TGI [39] was 641 nM and the TGI [40] was 1.84 µM. It also gave a TGI [41] of 2990 nM, a TGI [42] of 1620 nM and a TGI [43] of 0.494 µM. It also gave a TGI [45] of 1.48 µM, a TGI [46] of 1790 nM and a TGI [47] of 3.05 µM. For the same compound, the TGI [48] was 4.58 µM, the TGI [50] was 2720 nM and the TGI [51] was 0.235 µM. For the same compound, the TGI [52] was 3.6 µM.
